Experiment [1] concerns the target T1, progesterone receptor (Homo sapiens, UniProt P06401).
T1 construct: expressed in transfected cells; host or cells: CV-1 cells transduced with PRb-BacMam and MMTV-BacMam
T1 sequence (P06401 1-933): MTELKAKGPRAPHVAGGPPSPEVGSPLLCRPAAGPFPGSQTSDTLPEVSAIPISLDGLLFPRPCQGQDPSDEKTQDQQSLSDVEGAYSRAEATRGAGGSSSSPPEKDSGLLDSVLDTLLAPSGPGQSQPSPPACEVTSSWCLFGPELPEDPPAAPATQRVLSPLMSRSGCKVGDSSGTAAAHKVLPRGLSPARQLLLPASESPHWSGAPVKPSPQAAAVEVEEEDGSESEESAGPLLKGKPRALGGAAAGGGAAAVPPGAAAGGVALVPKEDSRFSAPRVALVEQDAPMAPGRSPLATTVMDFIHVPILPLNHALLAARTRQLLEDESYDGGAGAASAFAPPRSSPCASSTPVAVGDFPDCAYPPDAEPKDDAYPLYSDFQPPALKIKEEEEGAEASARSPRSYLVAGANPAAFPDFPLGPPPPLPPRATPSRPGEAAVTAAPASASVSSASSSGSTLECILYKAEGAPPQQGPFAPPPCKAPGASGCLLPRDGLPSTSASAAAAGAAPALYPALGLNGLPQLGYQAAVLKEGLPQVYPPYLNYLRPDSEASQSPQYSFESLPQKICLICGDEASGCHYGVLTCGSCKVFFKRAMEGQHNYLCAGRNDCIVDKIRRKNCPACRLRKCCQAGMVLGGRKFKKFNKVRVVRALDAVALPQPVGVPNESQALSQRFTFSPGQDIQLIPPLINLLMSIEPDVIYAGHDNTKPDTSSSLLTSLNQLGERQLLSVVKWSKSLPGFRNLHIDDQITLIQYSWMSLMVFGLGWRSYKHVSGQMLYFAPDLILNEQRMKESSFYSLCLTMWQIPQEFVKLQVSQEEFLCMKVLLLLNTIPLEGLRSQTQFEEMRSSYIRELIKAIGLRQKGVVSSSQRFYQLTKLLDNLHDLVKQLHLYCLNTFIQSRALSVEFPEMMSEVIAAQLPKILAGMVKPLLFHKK
The experiment can be described thus: Assay for progesterone receptor activity (CV-1 cells, PRb-BacMam/MMTV-BacMam). To be noted: CV-1 cells transduced with PRb-BacMam and MMTV-BacMam; read-out: pEC50 progesterone receptor activity (converted). The class given is cell-based. How it is done:
A T225 flask of CV-1 cells at a density of 80% confluency was washed with PBS, detached from the flask using 0.25% trypsin and counted using a Sysmex KX-21N. Cells were diluted in DMEM containing 10% Hyclone, 2 mM L-Glutamate and 1% Pen/Strep at 140 cells/μl and transduced with 10% PRb-BacMam and 10% MMTV-BacMam. […] of suspension cells were dispensed to each well of white Nunc 384-well plates, containing compounds at the required concentration. After 24 h 10 μl of Steadylite were added to each well of the plates. Plates were incubated in the dark for 10 min before reading them on a Viewlux reader. Dose response curves were constructed from which pEC50 values were estimated.

Experiment [2] concerns the target T2, glucocorticoid receptor (Homo sapiens, UniProt P04150).
T2 construct: a partially purified full length glucocorticoid receptor
T2 sequence (P04150 1-777): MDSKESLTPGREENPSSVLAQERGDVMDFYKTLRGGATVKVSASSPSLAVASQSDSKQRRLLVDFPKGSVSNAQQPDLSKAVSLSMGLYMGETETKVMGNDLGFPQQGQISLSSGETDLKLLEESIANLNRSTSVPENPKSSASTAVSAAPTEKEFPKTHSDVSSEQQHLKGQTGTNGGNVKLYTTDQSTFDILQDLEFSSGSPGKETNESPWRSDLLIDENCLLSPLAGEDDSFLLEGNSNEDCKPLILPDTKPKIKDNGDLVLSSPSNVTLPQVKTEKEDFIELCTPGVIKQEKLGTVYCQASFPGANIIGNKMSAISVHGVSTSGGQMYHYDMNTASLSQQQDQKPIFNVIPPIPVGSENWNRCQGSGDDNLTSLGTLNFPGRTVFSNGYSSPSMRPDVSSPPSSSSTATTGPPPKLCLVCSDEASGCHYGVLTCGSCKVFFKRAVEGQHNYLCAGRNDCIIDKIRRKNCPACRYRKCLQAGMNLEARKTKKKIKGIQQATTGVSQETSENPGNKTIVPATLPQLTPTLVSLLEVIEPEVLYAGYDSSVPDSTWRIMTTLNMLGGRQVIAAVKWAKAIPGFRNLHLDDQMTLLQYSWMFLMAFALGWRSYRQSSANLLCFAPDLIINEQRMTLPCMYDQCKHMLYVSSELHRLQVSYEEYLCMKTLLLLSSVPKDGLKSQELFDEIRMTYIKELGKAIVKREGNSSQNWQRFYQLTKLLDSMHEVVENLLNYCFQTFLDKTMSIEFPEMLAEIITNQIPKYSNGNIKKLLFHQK
Description: Glucocorticoid receptor binding assay (fluorescence polarisation). Conditions: competition with Alexa 555 fluorescently-labelled dexamethasone derivative, full length glucocorticoid receptor; read-out: glucocorticoid binding pIC50 (converted). As to the method:
Compounds were solvated and diluted in DMSO, and transferred directly into assay plates. Fluorescent dexamethasone and a partially purified full length glucocorticoid receptor were added to the plates, together with buffer components to stabilise the GR protein and incubated at room temperature for 2 hrs in the dark. Binding of each compound was assessed by analysing the displacement of fluorescent ligand by measuring the decrease in fluorescence polarisation signal from the mixture. Dose response curves were constructed from which pIC50 values were estimated.
(In general: Polarisation of emitted light reports the rotation of a fluorescent probe.)

Experiment [3] has as its system NFκB. The experiment can be described thus: NFκB agonist assay in A549 SPAP cells. It is filed as cell-based. To be noted: Homo sapiens; A549 SPAP cells, TNFα 3.2 ng/ml; read-out: pIC50 for the NFkB assay (converted). An excerpt:
Human lung carcinoma A549 cell line (ECACC No. 86012804) has been stably transfected in house with a plasmid containing an ELAM promoter sequence that has a NFκB response element within it. Stimulation of the cell line with TNFα results in intracellular signal transduction and ultimately translocation of NFκB into the nucleus. This activates the inserted DNA sequence resulting in transcription of the integrated SPAP gene, which is quantified using a colorimetric assay. […] The stably transfected cell line was grown as a monolayer in DMEM supplemented with FCS-HI (10%), Non-essential amino acids (1%), L-Glutamine (2 mM), Pen/Strep (1%) and Geneticin (50 mg/ml).
A 70% confluent T225 flask of A549 SPAP cells was harvested by centrifugation for 5 min at 200 g, resuspended in assay buffer (DMEM supplemented with 10% FCS 2×HI, 2 mM L-Glutamine, 1% Pen/Strep and Non essential amino acids) and diluted to 0.16×10^6/ml. 60 μl of cell solution was dispensed to each well of clear Nunc 384-well plates, containing compound at the required concentration. Plates were incubated for 1 h at 37° C., 95% humidity, 5% CO2 before 10 μl of TNFα was added at final concentration of 3.2 ng/ml and then returned to the cell incubator for 15 h. Plates were equilibrated to room temperature for 1 h prior to the addition of 25 μl of pNPP buffer (1M Diethanolamine pH 9.8, 0.5 mM MgCl2, 0.28M NaCl, 2 mg/ml pNPP) to each well of assay plates. The plates were covered to protect the reagents from light, and then incubated at room temperature for approximately 1 hour before reading them on an Ascent using a 405 nm single filter. Dose response curves were constructed from which pIC50 values were estimated.

Consider `Nc1c(C(=O)NCC(O)(CNC(=O)c2c(F)cccc2F)C(F)(F)F)cnn1-c1ccc(F)cc1` (racemic) [Example 6 (racemic), 5-Amino-N-[2-({[(2,6-difluorophenyl)carbonyl]amino}methyl)-3,3,3-trifluoro-2-hydroxypropyl]-1-(4-fluorophenyl)-1H-pyrazole-4-carboxamide], for which the EC50 in experiment [1] was over 1000 nM.

Take `Nc1c(C(=O)NCC(O)(CNC(=O)c2c(OC(F)F)cccc2OC(F)F)C(F)(F)F)cnn1-c1ccc(F)cc1` (racemic) [Example 20 (racemic), 5-amino-N-(2-{[({2,6-bis[(difluoromethyl)oxy]phenyl}carbonyl)amino]methyl}-3,3,3-trifluoro-2-hydroxypropyl)-1-(4-fluorophenyl)-1H-pyrazole-4-carboxamide]: the EC50 in experiment [1] is over 1000 nM. For the same molecule, the IC50 in experiment [2] was at most 316 nM.

Turning to `Nc1c(C(=O)NCC(O)(CN(CCF)C(=O)c2c(OC(F)F)cccc2OC(F)F)C(F)(F)F)cnn1-c1ccc(F)cc1` (racemic) [Example 32 (racemic), 5-amino-N-(2-{[({2,6-bis[(difluoromethyl)oxy]phenyl}carbonyl)(2-fluoroethyl)amino]methyl}-3,3,3-trifluoro-2-hydroxypropyl)-1-(4-fluorophenyl)-1H-pyrazole-4-carboxamide], the EC50 in experiment [1] was over 1000 nM. Moreover, the IC50 is at most 316 nM in experiment [2] and under 1000 nM in experiment [3].

With `Nc1c(C(=O)NCC(O)(CNC(=O)c2c(F)cccc2OC(F)F)C(F)(F)F)cnn1-c1ccc(F)cc1` (racemic) [Example 48 (racemic), 5-Amino-N-(2-{[({2-[(difluoromethyl)oxy]-6-fluorophenyl}carbonyl)amino]methyl}-3,3,3-trifluoro-2-hydroxypropyl)-1-(4-fluorophenyl)-1H-pyrazole-4-carboxamide], the EC50 in experiment [1] was over 1000 nM. Further, the IC50 in experiment [2] is at most 316 nM; in experiment [3], under 1000 nM.

Take `CCN(CC(O)(CNC(=O)c1cnn(-c2ccc(F)cc2)c1N)C(F)(F)F)C(=O)c1c(Cl)cccc1Cl` (single isomer, unassigned) [Example 2 Enantiomer 1, 5-Amino-N-(2-{[[(2,6-dichlorophenyl)carbonyl](ethyl)amino]methyl}-3,3,3-trifluoro-2-hydroxypropyl)-1-(4-fluorophenyl)-1H-pyrazole-4-carboxamide]: in experiment [1], the EC50 was over 1000 nM. For the same molecule, the IC50 in experiment [2] is at most 316 nM; in experiment [3] it was under 1000 nM.

As for `CCN(CC(O)(CNC(=O)c1cnn(-c2ccc(F)cc2)c1N)C(F)(F)F)C(=O)c1c(F)cccc1Cl` (single isomer, unassigned) [Example 4 Enantiomer 1, 5-Amino-N-(2-{[[(2-chloro-6-fluorophenyl)carbonyl](ethyl)amino]methyl}-3,3,3-trifluoro-2-hydroxypropyl)-1-(4-fluorophenyl)-1H-pyrazole-4-carboxamide], the EC50 in experiment [1] is over 1000 nM. The figures for the IC50 in experiment [2] and in experiment [3] were at most 316 nM and under 1000 nM, respectively.

Regarding `Nc1c(C(=O)NCC(O)(CNC(=O)c2c(F)cccc2Cl)C(F)(F)F)cnn1-c1ccc(F)cc1` (single isomer, unassigned) [Example 7 Enantiomer 1, 5-Amino-N-[2-({[(2-chloro-6-fluorophenyl)carbonyl]amino}methyl)-3,3,3-trifluoro-2-hydroxypropyl]-1-(4-fluorophenyl)-1H-pyrazole-4-carboxamide], the EC50 in experiment [1] was over 1000 nM. The IC50 in experiment [3] was under 1000 nM.

Take `Nc1c(C(=O)NCC(O)(CNC(=O)c2c(C(F)(F)F)cccc2C(F)(F)F)C(F)(F)F)cnn1-c1ccc(F)cc1` (single isomer, unassigned) [Example 15 Enantiomer 2, 5-amino-N-{2-[({[2,6-bis(trifluoromethyl)phenyl]carbonyl}amino)methyl]-3,3,3-trifluoro-2-hydroxypropyl}-1-(4-fluorophenyl)-1H-pyrazole-4-carboxamide]: in experiment [3], the IC50 is under 1000 nM.

Source of the values: patent US8247377B2, “Non-steroidal glucocorticoid inhibitors and their use in treating inflammation, allergy and auto-immune conditions” (Glaxo Group Limited, priority 2006, dated 2012).
